Assay results from the supplement of paper PMC10307832.

Key:
Assay in all cases: relative viability (nuclei count vs DMSO), 5 days (fraction); higher = more cells survive
NCI-H1734 = system: NCI-H1734
How it was run: (§1)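 A single step with final 0.05% Triton X-100, 1% formaldehyde and 1 ug/ml Hoechst fixed the cells and stained nuclei 5 days after treatment. Lung cancer cell lines in 1536-well plates had been treated by pin tool the day after seeding with one drug alone or a fixed anchor-drug dose plus five library-drug doses (not always all listed) in √10 steps, and nuclei were counted on 4× images. Relative viability is the ratio of nuclei in treated wells to nuclei in vehicle wells, taken as the median of duplicate plates.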

BEN = system: BEN
How it was run: as §1

LK-2 = system: LK-2
How it was run: as §1

COR-L 105 = system: COR-L 105
How it was run: as §1

NCI-H358 = system: NCI-H358
How it was run: as §1

NCI-H727 = system: NCI-H727
How it was run: as §1

NCI-H1792 = system: NCI-H1792
How it was run: as §1

SK-MES-1 = system: SK-MES-1
How it was run: as §1

LOU-NH91 = system: LOU-NH91
How it was run: as §1

NCI-H2126 = system: NCI-H2126
How it was run: as §1

EMC-BAC-2 = system: EMC-BAC-2
How it was run: as §1

NCI-H2087 = system: NCI-H2087
How it was run: as §1

SMILES: O=c1[nH]c2ccccc2n1C1CCN(CCCC(c2ccc(F)cc2)c2ccc(F)cc2)CC1 [Pimozide] + Cc1nc(Nc2ncc(C(=O)Nc3c(C)cccc3Cl)s2)cc(N2CCN(CCO)CC2)n1 [Dasatinib] (partner 0.075 µM)
- relative viability (NCI-H1734; first compound 0.08 µM): 0.495
- relative viability (NCI-H1734; first compound 0.253 µM): 0.454
- relative viability (NCI-H1734; first compound 2.53 µM): 0.529
- relative viability (NCI-H1734; first compound 8 µM): 0.493
- relative viability (BEN; first compound 0.08 µM): 0.279
- relative viability (BEN; first compound 0.253 µM): 0.364
- relative viability (BEN; first compound 0.8 µM): 0.26
- relative viability (BEN; first compound 2.53 µM): 0.329
- relative viability (BEN; first compound 8 µM): 0.412
- relative viability (LK-2; first compound 0.08 µM): 0.33
- relative viability (LK-2; first compound 0.253 µM): 0.273
- relative viability (LK-2; first compound 2.53 µM): 0.242
- relative viability (LK-2; first compound 8 µM): 0.24
- relative viability (COR-L 105; first compound 0.253 µM): 0.427
- relative viability (COR-L 105; first compound 0.8 µM): 0.411
- relative viability (COR-L 105; first compound 2.53 µM): 0.293
- relative viability (COR-L 105; first compound 8 µM): 0.301
- relative viability (NCI-H358; first compound 0.08 µM): 0.16
- relative viability (NCI-H358; first compound 0.253 µM): 0.199
- relative viability (NCI-H358; first compound 0.8 µM): 0.157
- relative viability (NCI-H358; first compound 2.53 µM): 0.156
- relative viability (NCI-H358; first compound 8 µM): 0.172
- relative viability (NCI-H727; first compound 0.08 µM): 0.36
- relative viability (NCI-H727; first compound 0.253 µM): 0.347
- relative viability (NCI-H727; first compound 0.8 µM): 0.4
- relative viability (NCI-H727; first compound 2.53 µM): 0.358
- relative viability (NCI-H727; first compound 8 µM): 0.405
- relative viability (NCI-H1792; first compound 0.08 µM): 0.89
- relative viability (NCI-H1792; first compound 0.253 µM): 0.823
- relative viability (NCI-H1792; first compound 0.8 µM): 0.769
- relative viability (NCI-H1792; first compound 2.53 µM): 0.973
- relative viability (NCI-H1792; first compound 8 µM): 0.849
- relative viability (SK-MES-1; first compound 0.08 µM): 0.313
- relative viability (SK-MES-1; first compound 0.253 µM): 0.41
- relative viability (SK-MES-1; first compound 0.8 µM): 0.358
- relative viability (SK-MES-1; first compound 2.53 µM): 0.325
- relative viability (SK-MES-1; first compound 8 µM): 0.336
- relative viability (LOU-NH91; first compound 0.08 µM): 0.44
- relative viability (LOU-NH91; first compound 0.253 µM): 0.564
- relative viability (LOU-NH91; first compound 0.8 µM): 0.537
- relative viability (LOU-NH91; first compound 2.53 µM): 0.572
- relative viability (LOU-NH91; first compound 8 µM): 0.579
- relative viability (NCI-H2126; first compound 0.08 µM): 0.687
- relative viability (NCI-H2126; first compound 0.253 µM): 0.548
- relative viability (NCI-H2126; first compound 0.8 µM): 0.568
- relative viability (NCI-H2126; first compound 2.53 µM): 0.607
- relative viability (NCI-H2126; first compound 8 µM): 0.605
- relative viability (EMC-BAC-2; first compound 0.08 µM): 0.351
- relative viability (EMC-BAC-2; first compound 0.253 µM): 0.274
- relative viability (EMC-BAC-2; first compound 0.8 µM): 0.331
- relative viability (EMC-BAC-2; first compound 2.53 µM): 0.285
- relative viability (EMC-BAC-2; first compound 8 µM): 0.218
- relative viability (NCI-H2087; first compound 0.08 µM): 0.905
- relative viability (NCI-H2087; first compound 0.253 µM): 0.724
